# Biological target: T1, Axl kinase (Homo sapiens, UniProt P30530)
# T1 construct: endogenous in cells; host or cells: HeLa cells
# T1 sequence (P30530 26-894): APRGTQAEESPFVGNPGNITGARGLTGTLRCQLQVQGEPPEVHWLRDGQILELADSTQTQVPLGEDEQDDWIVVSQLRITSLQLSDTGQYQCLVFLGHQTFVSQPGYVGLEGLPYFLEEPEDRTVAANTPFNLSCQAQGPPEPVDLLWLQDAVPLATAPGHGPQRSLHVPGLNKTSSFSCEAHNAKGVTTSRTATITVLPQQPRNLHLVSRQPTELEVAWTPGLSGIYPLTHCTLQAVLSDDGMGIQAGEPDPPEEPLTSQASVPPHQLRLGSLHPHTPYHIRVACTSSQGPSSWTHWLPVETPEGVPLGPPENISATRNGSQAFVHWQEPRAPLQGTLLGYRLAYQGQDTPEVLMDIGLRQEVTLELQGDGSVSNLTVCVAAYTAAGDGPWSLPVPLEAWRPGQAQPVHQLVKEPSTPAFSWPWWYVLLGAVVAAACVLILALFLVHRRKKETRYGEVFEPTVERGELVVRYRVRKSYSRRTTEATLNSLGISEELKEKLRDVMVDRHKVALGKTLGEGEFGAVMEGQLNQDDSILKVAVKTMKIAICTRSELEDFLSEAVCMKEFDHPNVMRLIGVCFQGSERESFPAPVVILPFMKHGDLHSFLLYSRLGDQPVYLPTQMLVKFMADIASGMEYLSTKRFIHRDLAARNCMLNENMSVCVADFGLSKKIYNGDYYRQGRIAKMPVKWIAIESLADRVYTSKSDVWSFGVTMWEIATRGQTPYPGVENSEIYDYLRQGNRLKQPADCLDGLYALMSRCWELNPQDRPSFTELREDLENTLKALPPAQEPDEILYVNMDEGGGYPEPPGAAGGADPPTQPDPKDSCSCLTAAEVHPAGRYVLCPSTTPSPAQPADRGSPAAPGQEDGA
# Assay: Phospho-Akt in-cell Western assay (Axl antibody cross-linking, Hela cells)
# Assay type: cell-based
# Details: phospho-Akt readout, read-out: IC50, inhibition of Axl kinase
# Experimental: The compounds of the invention were tested in the following assay for their ability to inhibit Axl activity.
# Phospho-Akt in-Cell Western Assay
# Starvation medium: For Axl stimulation: 0.5% FCS (fetal calf serum) in DMEM, plus Axl/Fc (extracellular domain of AXL fused to immunoglobulin Fc region) (R&D, 154-AL) 500 ng/mL.
# Axl antibody cross-linking: • 1st: Mouse anti-Axl (R&D, MAB 154). • 2nd: Biotin-SP-conjugated AffiniPure goat anti-mouse IgG (H+L) (Jackson ImmunoResearch #115-065-003).
# Primary antibody: Rabbit anti-human Phospho-Akt antibody (Cell Signaling 9271): 1×250 diluted in blocking buffer.
# Secondary antibody: HRP (horse radish peroxidase)-conjugated Goat anti-Rabbit secondary, stock solution: Jackson lmmunoResearch (Goat anti-Rabbit HRP, #111-035-144) 1:1 diluted in glycerol, store at −20° C. The working solution: 1×2000 dilution of stock in blocking buffer.
# A 96 well TC (tissue culture treated) plate was coated with 10 μg/mL poly-L-Lysine at 37° C. for 30 min, washed twice with PBS, and air-dried for 5 minutes before cells were added. Hela cells were seeded at 10,000 cells/well and the cells were starved in 100 μL starvation medium containing Axl/Fc for 24 hrs.
# The cells were pre-treated with test compounds by adding 100 μL of 2× test compound to the starvation medium on the cells. The cells were incubated at 37° C. for 1 hr before stimulation.
# The cells were stimulated by Axl-antibody cross-linking as follows: A 5× 1st/2nd Axl antibody mixture was made (37.5 μg/mL 1st/100 μg/mL 2nd) in starvation medium and nutated at 4° C. with thorough mixing for 1-2 hours for clustering. The resulting mix was warmed to 37° C. 50 μL of 5× Axl 1st/2nd of antibody cluster was added to the cells and the cells were incubated at 37° C. for 5 min.
# After 5 minutes stimulation, the plate was flicked to remove medium and the plate was tapped onto paper towels. Formaldehyde (4.0% in PBS, 100 μL) was added to fix the cells and the cells were incubated at ambient temperature for 20 min without shaking.
# The cells were washed with a plate washer buffer to remove the formaldehyde solution. The plate was flicked to remove excess wash buffer and tapped onto paper towels. Quenching buffer (100 μL) was added to each well and the cells were incubated at ambient temperature for 20 minutes without shaking.
# The cells were washed with a plate washer buffer to remove the quenching buffer. Blocking buffer (100 μL) was added and the cells were incubated at ambient temperature for at least an hour with gentle shaking.
# The cells were washed with a plate washer buffer and diluted primary antibody (50 μL) was added to each well (blocking buffer was added to the negative control wells instead). The plates were incubated overnight at 4° C. with gentle shaking.
# The wash buffer was removed, diluted secondary antibody (100 μL) was added, and the cells were incubated at ambient temperature for 1 hour with gentle shaking. During the incubation, the chemiluminescent reagent was brought to ambient temperature.
# The secondary antibody was removed by washing the cells 1× with wash buffer, 1× with PBS by plate washer. The PBS was removed from the plate and the chemiluminescent reagent (80 μL: 40 μL A and 40 μL B) was added to each well at ambient temperature.
# The resulting chemiluminescence was read with a Luminomitor within 10 minutes to minimize changes in signal intensity. After reading the chemiluminescence, the cells were washed 1× with wash buffer and 1× with PBS by plate washer. The plate was tapped onto paper towels to remove excess liquid from wells and air-dried at ambient temperature for 5 minutes.
# Crystal Violet working solution (60 μL) was added to each well and the cells were incubated at ambient temperature for 30 min. The crystal violet solution was removed, and the wells were rinsed with PBS, then washed 3× with PBS (200 μL) for 5 minutes each.
# 5% SDS solution (70 μL) was added to each well and the cells were incubated on a shaker for 30 min at ambient temperature. […]
row,Structure (SMILES),IC50 [µM]
1,"Cc1cc(Nc2nc(NC3C4C=CC(C4)C3C(N)=O)c3ccccc3n2)ccc1OCCN1CCCC1 (racemic) [Compound 215, Racemic-(2-exo,3-exo)-N4-(3-aminocarbonylbicyclo [2.2.1]hept-5-en-2-yl)-N2-(3-methyl-4-(2-(1-pyrrolidinyl)ethoxy)phenyl)-2,4-quinazoline-diamine]",< 5
2,"NC(=O)C1C2C=CC(C2)C1Nc1nc(Nc2ccc(OCCN3CCCC3)c(Cl)c2)nc2ccccc12 (racemic) [Compound 216, Racemic-(2-exo,3-exo)-N4-(3-aminocarbonylbicyclo [2.2.1]hept-5-en-2-yl)-N2-(3-Chloro-4-(2-(1-pyrrolidinyl)ethoxy)phenyl)-2,4-quinazoline-diamine]",< 5
3,"CCOC(=O)C1C2C=CC(C2)C1Nc1nc(Nc2cccc(OC)c2)nc2[nH]ccc12 (racemic) [Compound 232, Racemic-(2-exo,3-exo)-N4-(3-ethoxycarbonylbicyclo [2.2.1]hept-5-en-2-yl)-N2-(3-methoxyphenyl)-1H-pyrrolo[2,3-d]pyrimidine-2,4-diamine]",< 10
4,"CNC(=O)[C@H]1C[C@H]2CC(C2(C)C)[C@@]1(C)Nc1nc(Nc2ccc(OCCN3CCCC3)cc2)nc2ccsc12 (stereo in doubt) [Compound 197, (1S,2R,3S,5R)-N,2,6,6-tetramethyl-2-(2-(4-(2-(pyrrolidin-1-yl)ethoxy)phenylamino)thieno[3,2-d]pyrimidin-4-ylamino)bicyclo[3.1.1] heptane-3-carboxamide]",< 5
5,"CNC(=O)[C@H]1CC2CC(C2(C)C)[C@@]1(C)Nc1nc(Nc2ccc(N3CCN(C4CCCCC4)CC3)cc2)nc2ccsc12 (stereo in doubt) [Compound 198, (1S,2R,3S,SR)-2-(2-(4-(4-cyclohexylpiperazin-1-yl)phenylamino)thieno [3,2-d]pyrimidin-4-ylamino)-N,2,6,6-tetramethylbicyclo[3.1.1] heptane-3-carboxamide]",< 5
6,"NC(=O)C1C2C=CC(C2)C1Nc1nc(Nc2ccc3c(c2)OCCCO3)nc2ccsc12 (stereo not shown) [Compound 182, 3-(2-(3,4-dihydro-2H-benzo[b][1,4]dioxepin-7-ylamino)thieno[3,2-d]pyrimidin-4-ylamino)bicyclo[2.2.1] hept-5-ene-2-carboxamide]",< 5
7,"NC(=O)[C@H]1C2C=CC(C2)[C@H]1Nc1nc(Nc2ccc(OCCN3CCCC3)cc2)nc2c1cnn2Cc1ccccc1 (stereo partly drawn) [Compound 189, (2S,3R)-3-(1-benzyl-6-(4-(2-(pyrrolidin-1-yl)ethoxy)phenylamino)-1H-pyrazolo[3,4-d]pyrimidin-4-ylamino)bicyclo[2.2.1] hept-5-ene-2-carboxamide]",> 10
8,"NC(=O)[C@H]1C2C=CC(C2)[C@H]1Nc1nc(Nc2ccc(OCCN3CCCC3)cc2)nc2cc(C(F)(F)F)sc12 (stereo partly drawn) [Compound 210, (2S,3R)-3-(2-(4-(2-(pyrrolidin-1-yl)ethoxy)phenylamino)-6-(trifluoromethyl)thieno [3,2-d]pyrimidin-4-ylamino)bicyclo[2.2.1] hept-5-ene-2-carboxamide]",> 10

# Continued, values first:
row,IC50 [µM],Structure (SMILES)
1,< 5,"CCN(CC)C(=O)c1cccc(Nc2nc(NC3C4C=CC(C4)C3C(N)=O)c3cc[nH]c3n2)c1 (racemic) [Compound 222, Racemic-(2-exo,3-exo)-N4-(3-aminocarbonylbicyclo [2.2.1]hept-5-en-2-yl)-N2-(3-N,N-diethyl-aminocarbonyl-phenyl)-1H-pyrrolo[2,3-d]pyrimidine-2,4-diamine]"
2,< 10,"CONC(=O)Cc1cccc(Nc2nc(NC3C4C=CC(C4)C3C(N)=O)c3cc[nH]c3n2)c1 (racemic) [Compound 229, Racemic-(2-exo,3-exo)-N4-(3-aminocarbonylbicyclo [2.2.1]hept-5-en-2-yl)-N2-[3-(N-methoxy)-aminocarbonyl-methylphenyl]-1H-pyrrolo[2,3-d]pyrimidine-2,4-diamine]"
3,< 5,NC(=O)C1C2C=CC(C2)C1Nc1nc(Nc2ccc(OCCN3CCCC3)cc2)nc2[nH]cnc12 (racemic) [Compound 234]
4,< 5,"NC(=O)C1C2C=CC(C2)C1Nc1nc(Nc2ccc(OCCN3CCCC3)cc2)nc2c1CCC2 (stereo not shown) [Compound 185, 3-(2-(4-(2-(pyrrolidin-1-yl)ethoxy)phenylamino)-6,7-dihydro-5H-cyclopenta[d]pyrimidin-4-ylamino)bicyclo[2.2.1] hept-5-ene-2-carboxamide]"
5,< 5,"NC(=O)C1C2C=CC(C2)C1Nc1nc2c(c(Nc3ccc(OCCN4CCCC4)cc3)n1)CN(Cc1ccccc1)CC2 (stereo not shown) [Compound 186, 3-(6-benzyl-4-(4-(2-(pyrrolidin-1-yl)ethoxy)phenylamino)-5,6,7,8-tetrahydropyrido[4,3-d]pyrimidin-2-ylamino)bicyclo[2.2.1] hept-5-ene-2-carboxamide]"
6,> 10,"CCOC(=O)N1CCN(c2ccc(Nc3nc(N[C@@H]4C5C=CC(C5)[C@@H]4C(N)=O)c4sccc4n3)cc2F)CC1 (stereo partly drawn) [Compound 208, ethyl 4-(4-(4-((2R,35)-3-carbamoylbicyclo[2.2. 1]hept-5-en-2-ylamino)thieno[3,2-d]pyrimidin-2-ylamino)-2-fluorophenyl)piperazine-1-carboxylate]"
7,< 5,"CC1CCN(C2CCN(c3ccc(Nc4nc(N[C@@H]5C6C=CC(C6)[C@@H]5C(N)=O)c5sc(C(F)(F)F)cc5n4)cc3F)CC2)CC1 (stereo partly drawn) [Compound 209, (2S,3R)-3-(2-(3-fluoro-4-(4-methyl-1,4′-bipiperidin-1′-yl)phenylamino)-6-(trifluoromethyl)thieno [3,2-d]pyrimidin-4 ylamino)bicyclo[2.2.1] hept-5-ene-2-carboxamide]"
8,< 10,"NC(=O)[C@H]1C2C=CC(C2)[C@H]1Nc1nc(Nc2ccc(C(=O)N3CCN(C4CCCCC4)CC3)cc2)nc2cc(C(F)(F)F)sc12 (stereo partly drawn) [Compound 211, (2S,3R)-3-(2-(4-(4-cyclohexylpiperazine-1-carbonyl)phenylamino)-6-(trifluoromethyl)thieno [3,2-d]pyrimidin-4 ylamino)bicyclo[2.2.1] hept-5-ene-2-carboxamide]"

# From US7601713B2, “Kinase inhibitors and their uses” (Rigel Pharmaceuticals, Inc., priority 2005, dated 2009)
